From ChEMBL document CHEMBL4184288, “Marine bis-γ-pyrone polypropionates of onchidione family and their effects on the XBP1 gene expression” (Bioorg Med Chem Lett, 2018)
Activity calls are given as the source filed them. The rule behind the calls is not given here.

Columns and labels:
[1] = organism: Mus musculus; assay: Activation of XBP1 mRNA splicing in tunicamycin-stimulated mouse B16F10 cells harboring XBP1-DBD-luc at 10 ug/ml treated 24 hrs post tunicamycin measured after 8 hrs by luciferase reporter gene assay relative to control
[2] = organism: Mus musculus; assay: Activation of XBP1 mRNA splicing in tunicamycin-stimulated mouse B16F10 cells harboring XBP1-DBD-luc treated 24 hrs post tunicamycin measured after 8 hrs by luciferase reporter gene assay relative to control
[3] = organism: Mus musculus; assay: Activation of XBP1 mRNA splicing in tunicamycin-stimulated mouse B16F10 cells harboring XBP1-DBD-luc at 1 ug/ml after 8 hrs by luciferase reporter gene assay relative to control

Row | SMILES | Activity [1] [%] | fold change (FC) [1] | Activity [2] | Activity [3] [%]
1 | CCC(=O)[C@@H](C)c1oc([C@H](C)[C@@H]2O[C@](O)([C@@H](C)c3oc(CC)c(C)c(=O)c3C)[C@@H](C)[C@@H](OC(=O)CC(C)C)[C@@H]2C)c(C)c(=O)c1C | 218 | 2 | – | –
2 | CCC(=O)[C@H](C)c1oc([C@H](C)[C@@H]2O[C@](O)([C@@H](C)c3oc(CC)c(C)c(=O)c3C)[C@@H](C)[C@@H](OC(=O)CC(C)C)[C@@H]2C)c(C)c(=O)c1C | 210 | 2 | – | –
3 | CCCCCCCCCCCCC/C=C/C(=O)N[C@H]1[C@H](O[C@H]2O[C@H](CO)[C@@H](O)[C@H](O)[C@H]2NC(C)=O)O[C@H](CC(O)[C@H]2O[C@@H](n3ccc(=O)[nH]c3=O)[C@H](O)[C@@H]2O)[C@H](O)[C@@H]1O (some centres undefined) | – | – | – | 178

More lines, main results first:

Row | Activity [1] [%] | fold change (FC) [1] | Activity [2] | SMILES | Activity [3] [%]
4 | – | – | inactive | CCC(=O)O[C@@H](CC)[C@H](C)c1oc([C@H](C)[C@@H]2O[C@](O)([C@@H](C)c3oc(CC)c(C)c(=O)c3C)[C@@H](C)[C@@H](OC(=O)CC(C)C)[C@@H]2C)c(C)c(=O)c1C | –
5 | 234 | 2 | – | CCc1oc([C@H](C)[C@@]2(O)O[C@@H]([C@@H](C)c3oc([C@@H](C)[C@H](CC)OC(C)=O)c(C)c(=O)c3C)[C@@H](C)[C@H](OC(=O)CC(C)C)[C@@H]2C)c(C)c(=O)c1C | –
6 | – | – | inactive | CCc1oc([C@H](C)[C@@]2(O)O[C@@H]([C@@H](C)c3oc([C@@H](C)[C@@H](O)CC)c(C)c(=O)c3C)[C@@H](C)[C@H](OC(=O)CC(C)C)[C@@H]2C)c(C)c(=O)c1C | –
